# How the values were obtained:
# Type in all cases: functional
# UO-31 = test: Growth inhibition of human UO31 cells assessed as cell growth at 10^-6 M after 48 hrs by sulforhodamine B assay; conditions: UO-31, 48 h, read-out: Activity
# OVCAR-3 [1] = test: Growth inhibition of human OVCAR3 cells assessed as cell growth at 10^-4 M after 48 hrs by sulforhodamine B assay; conditions: OVCAR-3, 48 h, read-out: Activity
# BT-549 = test: Growth inhibition of human BT549 cells assessed as cell growth at 10^-8 M after 48 hrs by sulforhodamine B assay; conditions: BT-549, 48 h, read-out: Activity
# NCI-H23 [2] = test: Growth inhibition of human NCI-H23 cells assessed as cell growth at 10^-7 M after 48 hrs by sulforhodamine B assay; conditions: NCI-H23, 48 h, read-out: Activity
# SF-295 [3] = test: Growth inhibition of human SF295 cells assessed as cell growth at 10^-4 M after 48 hrs by sulforhodamine B assay; conditions: SF-295, 48 h, read-out: Activity
# SNB-19 = test: Growth inhibition of human SNB19 cells assessed as cell growth at 10^-5 M after 48 hrs by sulforhodamine B assay; conditions: SNB-19, 48 h, read-out: Activity
# SK-MEL-28 [4] = test: Growth inhibition of human SK-MEL-28 cells assessed as cell growth at 10^-7 M after 48 hrs by sulforhodamine B assay; conditions: SK-MEL-28, 48 h, read-out: Activity
# UACC-257 = test: Growth inhibition of human UACC257 cells assessed as cell growth at 10^-8 M after 48 hrs by sulforhodamine B assay; conditions: UACC-257, 48 h, read-out: Activity
# SR = test: Growth inhibition of human SR cells assessed as cell growth at 10^-8 M after 48 hrs by sulforhodamine B assay; conditions: read-out: Activity
# HCT-15 [5] = test: Growth inhibition of human HCT15 cells assessed as cell growth at 10^-4 M after 48 hrs by sulforhodamine B assay; conditions: HCT-15, 48 h, read-out: Activity
# OVCAR-8 = test: Growth inhibition of human OVCAR8 cells assessed as cell growth at 10^-8 M after 48 hrs by sulforhodamine B assay; conditions: OVCAR-8, 48 h, read-out: Activity
# LOX IMVI = test: Growth inhibition of human LOXIMVI cells assessed as cell growth at 10^-6 M after 48 hrs by sulforhodamine B assay; conditions: read-out: Activity
# HOP-92 [6] = test: Growth inhibition of human HOP92 cells assessed as cell growth at 10^-4 M after 48 hrs by sulforhodamine B assay; conditions: HOP-92, 48 h, read-out: Activity
# KM12 = test: Growth inhibition of human KM12 cells assessed as cell growth at 10^-4 M after 48 hrs by sulforhodamine B assay; conditions: KM12, 48 h, read-out: Activity
# NCI-H322M = test: Growth inhibition of human NCI-H322M cells assessed as cell growth at 10^-4 M after 48 hrs by sulforhodamine B assay; conditions: read-out: Activity
# OVCAR-5 [7] = test: Growth inhibition of human OVCAR5 cells assessed as cell growth at 10^-6 M after 48 hrs by sulforhodamine B assay; conditions: OVCAR-5, 48 h, read-out: Activity
# MCF7 = test: Growth inhibition of human MCF7 cells assessed as cell growth at 10^-8 M after 48 hrs by sulforhodamine B assay; conditions: MCF7, 48 h, read-out: Activity
# NCI-H23 [8] = test: Growth inhibition of human NCI-H23 cells assessed as cell growth at 10^-8 M after 48 hrs by sulforhodamine B assay; conditions: NCI-H23, 48 h, read-out: Activity
# SN12C [9] = test: Growth inhibition of human SN12C cells assessed as cell growth at 10^-5 M after 48 hrs by sulforhodamine B assay; conditions: read-out: Activity
# HCT-15 [10] = test: Growth inhibition of human HCT15 cells assessed as cell growth at 10^-7 M after 48 hrs by sulforhodamine B assay; conditions: HCT-15, 48 h, read-out: Activity
# OVCAR-3 [11] = test: Growth inhibition of human OVCAR3 cells assessed as cell growth at 10^-8 M after 48 hrs by sulforhodamine B assay; conditions: OVCAR-3, 48 h, read-out: Activity
# UACC-62 = test: Growth inhibition of human UACC62 cells assessed as cell growth at 10^-8 M after 48 hrs by sulforhodamine B assay; conditions: UACC-62, 48 h, read-out: Activity
# NCI-H522 [12] = test: Growth inhibition of human NCI-H522 cells assessed as cell growth at 10^-6 M after 48 hrs by sulforhodamine B assay; conditions: NCI-H522, 48 h, read-out: Activity
# CAKI-1 = test: Growth inhibition of human CAKI-1 cells assessed as cell growth at 10^-5 M after 48 hrs by sulforhodamine B assay; conditions: CAKI-1, 48 h, read-out: Activity
# SN12C [13] = test: Growth inhibition of human SN12C cells assessed as cell growth at 10^-7 M after 48 hrs by sulforhodamine B assay; conditions: read-out: Activity
# NCI-H226 = test: Growth inhibition of human NCI-H226 cells assessed as cell growth at 10^-4 M after 48 hrs by sulforhodamine B assay; conditions: NCI-H226, 48 h, read-out: Activity
# SK-MEL-28 [14] = test: Growth inhibition of human SK-MEL-28 cells assessed as cell growth at 10^-6 M after 48 hrs by sulforhodamine B assay; conditions: SK-MEL-28, 48 h, read-out: Activity
# NCI-H460 = test: Growth inhibition of human NCI-H460 cells assessed as cell growth at 10^-8 M after 48 hrs by sulforhodamine B assay; conditions: NCI-H460, 48 h, read-out: Activity
# SF-295 [15] = test: Growth inhibition of human SF295 cells assessed as cell growth at 10^-6 M after 48 hrs by sulforhodamine B assay; conditions: SF-295, 48 h, read-out: Activity
# OVCAR-5 [16] = test: Growth inhibition of human OVCAR5 cells assessed as cell growth at 10^-4 M after 48 hrs by sulforhodamine B assay; conditions: OVCAR-5, 48 h, read-out: Activity
# MDA-MB-231 = test: Growth inhibition of human MDA-MB-231 cells assessed as cell growth at 10^-6 M after 48 hrs by sulforhodamine B assay; conditions: MDA-MB-231, 48 h, read-out: Activity
# NCI-H522 [17] = test: Growth inhibition of human NCI-H522 cells assessed as cell growth at 10^-7 M after 48 hrs by sulforhodamine B assay; conditions: NCI-H522, 48 h, read-out: Activity
# HL-60(TB) = test: Growth inhibition of human HL-60(TB) cells assessed as cell growth at 10^-5 M after 48 hrs by sulforhodamine B assay; conditions: HL-60, 48 h, read-out: Activity
# NCI-H23 [18] = test: Growth inhibition of human NCI-H23 cells assessed as cell growth at 10^-5 M after 48 hrs by sulforhodamine B assay; conditions: NCI-H23, 48 h, read-out: Activity
# HOP-92 [19] = test: Growth inhibition of human HOP92 cells assessed as cell growth at 10^-6 M after 48 hrs by sulforhodamine B assay; conditions: HOP-92, 48 h, read-out: Activity
# HOP-92 [20] = test: Growth inhibition of human HOP92 cells assessed as cell growth at 10^-7 M after 48 hrs by sulforhodamine B assay; conditions: HOP-92, 48 h, read-out: Activity
# HT-29 = test: Growth inhibition of human HT-29 cells assessed as cell growth at 10^-5 M after 48 hrs by sulforhodamine B assay; conditions: HT-29, 48 h, read-out: Activity
# TK-10 = test: Growth inhibition of human TK10 cells assessed as cell growth at 10^-8 M after 48 hrs by sulforhodamine B assay; conditions: TK-10, 48 h, read-out: Activity
SMILES,growth at 1 µM (UO-31),growth at 100 µM (OVCAR-3 [1]),growth at 0.01 µM (BT-549),growth at 0.1 µM (NCI-H23 [2]),growth at 100 µM (SF-295 [3]),growth at 10 µM (SNB-19),growth at 0.1 µM (SK-MEL-28 [4]),growth at 0.01 µM (UACC-257),growth at 0.01 µM (SR),growth at 100 µM (HCT-15 [5]),growth at 0.01 µM (OVCAR-8),growth at 1 µM (LOX IMVI),growth at 100 µM (HOP-92 [6]),growth at 100 µM (KM12),growth at 100 µM (NCI-H322M),growth at 1 µM (OVCAR-5 [7]),growth at 0.01 µM (MCF7),growth at 0.01 µM (NCI-H23 [8]),growth at 10 µM (SN12C [9]),growth at 0.1 µM (HCT-15 [10]),also measured
COc1cc(-c2nn(-c3cccc(NC(=O)c4ccccc4)c3)cc2-c2ccncc2)ccc1Cl,42%,-51%,92%,91%,-46%,30%,94%,93%,94%,12%,98%,36%,-15%,6%,34%,87%,92%,92%,34%,96%,growth at 0.01 µM (OVCAR-3 [11]): 103%; growth at 0.01 µM (UACC-62): 98%; growth at 1 µM (NCI-H522 [12]): 15%; growth at 10 µM (CAKI-1): 14%; growth at 0.1 µM (SN12C [13]): 98%; growth at 100 µM (NCI-H226): 24%; growth at 1 µM (SK-MEL-28 [14]): 60%; growth at 0.01 µM (NCI-H460): 102%; growth at 1 µM (SF-295 [15]): 15%; growth at 100 µM (OVCAR-5 [16]): 8%; growth at 1 µM (MDA-MB-231): 53%; growth at 0.1 µM (NCI-H522 [17]): 85%; growth at 10 µM (HL-60(TB)): 13%; growth at 10 µM (NCI-H23 [18]): 21%; growth at 1 µM (HOP-92 [19]): 15%; growth at 0.1 µM (HOP-92 [20]): 86%; growth at 10 µM (HT-29): 7%; growth at 0.01 µM (TK-10): 93%
COc1cc(-c2nn(-c3cccc(NC(=O)c4ccc(N5CCOCC5)c(C(F)(F)F)c4)c3)cc2-c2ccncc2)ccc1Cl,33%,-33%,99%,92%,-72%,22%,68%,95%,91%,2%,98%,29%,-30%,-12%,-1%,57%,87%,97%,14%,65%,growth at 0.01 µM (OVCAR-3 [11]): 110%; growth at 0.01 µM (UACC-62): 95%; growth at 1 µM (NCI-H522 [12]): 17%; growth at 10 µM (CAKI-1): -2%; growth at 0.1 µM (SN12C [13]): 90%; growth at 100 µM (NCI-H226): 16%; growth at 1 µM (SK-MEL-28 [14]): 56%; growth at 0.01 µM (NCI-H460): 100%; growth at 1 µM (SF-295 [15]): 4%; growth at 100 µM (OVCAR-5 [16]): 2%; growth at 1 µM (MDA-MB-231): 18%; growth at 0.1 µM (NCI-H522 [17]): 51%; growth at 10 µM (HL-60(TB)): 2%; growth at 10 µM (NCI-H23 [18]): 4%; growth at 1 µM (HOP-92 [19]): -5%; growth at 0.1 µM (HOP-92 [20]): 56%; growth at 10 µM (HT-29): -43%; growth at 0.01 µM (TK-10): 99%

# — ChEMBL document CHEMBL2440076, “New triarylpyrazoles as broad-spectrum anticancer agents: design, synthesis, and biological evaluation” (Eur J Med Chem, 2013)
